From patent US4474764A, “3-Amino-2-hydroxy-4-phenylbutanoic acid derivatives and pharmaceutical composition containing the same” (Zaidan Hojin Biseibutsu Kagaku Kenkyu Kai, priority 1981, dated 1984)

Columns and labels:
enkephalinase = biological target: T1, enkephalinase (Rattus norvegicus, UniProt P07861); assay: Inhibitory activity against enkephalinase (Test 1); assay type: biochemical; conditions: enkephalinase from corpus striatum of rat brain; substrate methionine-enkephaline; 37° C., 1 hour; pH 7.7
T1 construct: homogenizing corpus striatum of rat brain and by partial purification of the brain homogenate; from tissue; host or cells: rat brain corpus striatum, homogenate partially purified by the method of Gorenstein et al
T1 sequence (P07861 1-750): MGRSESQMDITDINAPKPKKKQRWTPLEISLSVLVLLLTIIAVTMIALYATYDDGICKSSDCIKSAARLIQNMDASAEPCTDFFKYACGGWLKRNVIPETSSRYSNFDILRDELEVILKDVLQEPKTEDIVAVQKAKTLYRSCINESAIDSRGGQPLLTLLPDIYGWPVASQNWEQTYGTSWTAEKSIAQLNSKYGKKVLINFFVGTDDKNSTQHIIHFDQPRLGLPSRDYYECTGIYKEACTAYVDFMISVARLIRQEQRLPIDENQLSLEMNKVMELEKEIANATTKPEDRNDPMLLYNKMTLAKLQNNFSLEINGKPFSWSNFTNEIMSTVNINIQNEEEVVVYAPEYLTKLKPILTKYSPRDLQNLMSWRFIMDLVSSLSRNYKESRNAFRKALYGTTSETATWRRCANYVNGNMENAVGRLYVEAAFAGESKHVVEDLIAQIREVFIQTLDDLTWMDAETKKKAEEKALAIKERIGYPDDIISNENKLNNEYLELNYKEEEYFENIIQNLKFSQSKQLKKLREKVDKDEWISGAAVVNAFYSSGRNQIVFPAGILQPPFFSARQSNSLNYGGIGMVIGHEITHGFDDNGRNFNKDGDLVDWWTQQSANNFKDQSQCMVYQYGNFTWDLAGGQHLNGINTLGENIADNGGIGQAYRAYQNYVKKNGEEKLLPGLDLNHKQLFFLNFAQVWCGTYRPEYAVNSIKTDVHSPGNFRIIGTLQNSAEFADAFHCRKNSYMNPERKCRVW
Experimental: Inhibitory activity against enkephalinase were tested.
A preparation of enkephalinase was made by homogenizing corpus striatum of rat brain and by partial purification of the brain homogenate according to the method of Gorenstein et al (see the "Life Science" Vol. 25, 2065~2070 (1979) Pergamon Press, U.S.A.).
A test compound was dissolved in a mixture of Trishydrochloride buffered solution (pH 7.7) and an aqueous 1% Triton X100 (an active surfectant) to such a concentration that the added quantity of the test compound amounted to one-tenth of the volume of said mixture. To the solution of the test compound so prepared was added the enkephalinase, followed by incubation for five minutes at ambient temperature and further by addition of methionine-enkephaline as the substrate. The admixture so obtained was incubated at 37° C. for 1 hour and then subjected to a high-performance liquid chromatography in such a manner that the Tyr-Gly-GLy (a fragment of the methionine-enkephaline) formed by the enzymatic degradation of methionine-enkephaline was isolated in some fractions of the eluate and the quantity of Tyr-Gly-GLy was determined by an electro-chemically analysing detector. In this way, IC50 value of the test compound, namely the dose of the test compound required for 50% inhibition of the enkephalinase was measured.

[1] = system: morphine analgesia-non-effective Wistar rats; assay: Effect of enhancing morphine analgesia, tail-flick latency (Test 2); assay type: in vivo, rat; conditions: 250 mg/kg test compound i.p., 10 minutes later 0.5 mg/kg morphine i.p.; versus 0.5 mg/kg morphine alone; tail-flick latency
Experimental: Effect of enhancing morphine analgesia was tested.
To Wistar rats (10 week-age, male, body weight 250~300 g) was given intraperitoneally morphine at a dose of 0.5 mg/kg, and these rats receiving the morphine were classified into the group of morphine analgesia-effective rats and the group of morphine analgesia-non-effectiverats according to the classification method described in the "Showa Igakukai Zasshi" Vol. 39, No. 5, pages 537~542 (1979). […] The effect of analgesia was evaluated according to the method of tail-flick latency of rats described in the "Showa Igakukai Zasshi" Vol. 39, No. 5, pages 537~542 (1979). The evaluation of pain threshold of rats according to the tail-flick latency method was made as follows: Radiant heat stimulus was applied to the region of the rat tail which positioned 1 cm away from the tail tip and which had been colored black with a black-dye, and the time of latency involved in the tail flick, namely the period of time lapsing between the time of application of the heat stimulus and the time of the reflective flick response of the tail was measured. The quantity of the heat applied was so controlled that the average time of latency of the tail-flick response appearing in the control group of rats (receiving neither the test compound nor the morphine) was about 2.0 seconds. The tests were accomplished as long as the maximum value for the tail-flick latency was 7.0 seconds or less, as otherwise the skin of the rat tail could be damaged by the application of heat. In other words, if the time for the tail-flick latency was longer than 7.0 seconds, the tests were stopped to prevent the damage of the rat tail. The radiant heat stimulus was repeated 5 times for each test rat at an interval of 15 minutes and the times of latency in the flick response of the tail measured in each test were averaged. In each test, 5 rats were used.
The difference in the time of the tail-flick latency between the test rats (receiving 250 mg/kg of the test compound plus 0.5 mg/kg of morphine) and the control rats (receiving 0.5 mg/kg of morphine alone) was calculated, and the effect for enhancement of morphine analgesia was estimated in term of the value of percentages which were calculated by the following equation: [formula]

| SMILES | IC50 (enkephalinase) | Morphine Analgesia enhancement [1] |
| --- | --- | --- |
| NCC(=O)NCC(=O)N[C@H](Cc1ccccc1)[C@H](O)C(=O)O [Compound 4, (2S,3R)-3-N--glycylglycylamino-2-hydroxy-4-phenylbutanoic acid] | 240 µM | 10.6% |
| NCC[C@H](O)C(=O)N[C@H](Cc1ccccc1)[C@H](O)C(=O)O [Compound 11, (2S,3R)-3-N--[4'-amino-(2'S)--2'-hydroxybutanoyl]amino-2-hydroxy-4-phenylbutanoic acid] | 1280 µM | 21.6% |
| CC(C)C[C@H](NC(=O)[C@@H](O)[C@H](N)Cc1ccccc1)C(=O)O [Bestatin, (2S,3R)-3-amino-2-hydroxy-4-phenylbutanoyl-(S)-leucine, reference compound] | 590 µM | 19.9% |
| COC(=O)[C@@H](O)[C@@H](Cc1ccccc1)NC(=O)CNC(C)=O [Compound 3, (2S,3R)-3-N--(N'--acetylglycyl)amino-2-hydroxy-4-phenylbutanoic acid methyl ester] | 5480 µM | 22.9% |
| CC(C)C[C@@H](N)C(=O)N[C@H](Cc1ccccc1)[C@@H](O)C(=O)O [Compound 18, (2R,3R)-3-N--(R)-leucylamino-2-hydroxy-4-phenylbutanoic acid] | 2650 µM | 23.4% |
| CC(=O)NCC(=O)NCC(=O)N[C@H](Cc1ccccc1)[C@H](O)C(=O)O [Compound 6, (2S,3R)-3-N--(N'--acetylglycylglycyl)amino-2-hydroxy-4-phenylbutanoic acid] | 2450 µM | 32.5% |
| N[C@H](Cc1ccccc1)C(=O)N[C@H](Cc1ccc(O)cc1)[C@H](O)C(=O)O [Compound 17, (2S,3R)-3-N--(R)-phenylalanylamino-2-hydroxy-4-p-hydroxy-phenylbutanoic acid] | 130 µM | 32.1% |
| COC(=O)[C@@H](O)[C@@H](Cc1ccccc1)NC(=O)CNC(=O)CN.Cl [Compound 5, (2S,3R)-3-N--glycylglycylamino-2-hydroxy-4-phenylbutanoic acid methyl ester hydrochloride] | 1520 µM | 19.0% |
| C[C@@H](N)C(=O)N[C@H](Cc1ccccc1)[C@H](O)C(=O)O [Compound 14, (2S,3R)-3-N--(R)-alanylamino-2-hydroxy-4-phenylbutanoic acid] | 2140 µM | 16.8% |
| CC(C)C[C@@H](N)C(=O)N[C@H](Cc1ccccc1)[C@H](O)C(=O)O [Compound 9, (2S,3R)-3-N--(R)-leucylamino-2-hydroxy-4-phenylbutanoic acid] | 2480 µM | 26.3% |
| CC(=O)NCC(=O)NCC(=O)N[C@H](Cc1ccccc1)[C@H](O)C(=O)[O-].[Na+] [Compound 13, (2S,3R)-3-N--(N'--acetylglycylglycyl)amino-2-hydroxy-4-phenylbutanoic acid sodium salt] | – | 33.1% |
| CNCC(=O)N[C@H](Cc1ccccc1)[C@H](O)C(=O)O [Compound 7, (2S,3R)-3-N--(N'--methylglycyl)amino-2-hydroxy-4-phenylbutanoic acid] | – | 16.2% |
| C[C@@H](NC=O)C(=O)N[C@H](Cc1ccccc1)[C@H](O)C(=O)[O-].[Na+] [Compound 15, (2S,3R)-3-N--(N'--formyl-(R)-alanyl)amino-2-hydroxy-4-phenylbutanoic acid sodium salt] | 150 µM | 19.7% |
| CC(C)C[C@H](N)C(=O)N[C@H](Cc1ccccc1)[C@H](O)C(=O)O [Compound 8, (2S,3R)-3-N--(S)--leucylamino-2-hydroxy-4-phenylbutanoic acid] | 2560 µM | 22.5% |
| COC(=O)[C@@H](O)[C@@H](Cc1ccccc1)NC(=O)CN.Cl [Compound 2, (2S,3R)-3-N--glycylamino-2-hydroxy-4-phenylbutanoic acid methyl ester hydrochloride] | 300 µM | 11.6% |
| N[C@H](Cc1ccccc1)[C@H](O)C(=O)N[C@H](Cc1ccccc1)[C@H](O)C(=O)O [Compound 12, (2S,3R)-3-N--[(2'S,3'R)-3'-amino-2'-hydroxy-4'-phenylbutanoyl]amino-2-hydroxy-4-phenylbutanoic acid] | > 20000 µM | 15.7% |
| NCC(=O)N[C@H](Cc1ccccc1)[C@H](O)C(=O)O [Compound 1, (2S,3R)-3-N--glycylamino-2-hydroxy-4-phenylbutanoic acid] | 2780 µM | 25.7% |
| N[C@@H](Cc1ccc(O)cc1)C(=O)NCC(=O)NCC(=O)N[C@@H](Cc1ccccc1)[C@@H](O)C(=O)O [Compound 16, (2R,3S)--3-N--(S)--tyrosylglycylglycylamino-2-hydroxy-4-phenylbutanoic acid] | 440 µM | 15.2% |
